Measured values from patent US8981111B2 (priority 2008, dated 2015).

Assay: log P (HPLC/MS data of the preparation examples)
Conditions: HCOOH

Row | Compound | log P(HCOOH)
1 | 2-(6-{[({(3-bromo-4-methoxyphenyl)[3-chloro-5-(trifluoromethyl)pyridin-2-yl]methylene}amino)oxy]methyl}pyridin-2-yl)-1H-isoindole-1,3(2H)-dione [Example 430] | 4.78
2 | 2-[({[(1-methyl-1H-imidazol-5-yl)(phenyl)methylene]amino}oxy)methyl]pyrimidin-4-amine [Example 105] | < 0.23
3 | 2-methyl-N-{4-[({[(1-methyl-1H-imidazol-5-yl)(phenyl)methylene]amino}-oxy)methyl]-1,3-thiazol-2-yl}propanamide [Example 143] | 1.63
4 | 2-{6-[({[(1-methyl-1H-imidazol-5-yl)(3-thienyl)methylene]amino}oxy)-methyl]pyridin-2-yl}-1H-isoindole-1,3(2H)-dione [Example 491] | 1.73
5 | 6-[({[(1-methyl-1H-imidazol-5-yl)(phenyl)methylene]amino}oxy)methyl]pyridin-2-amine [Example 108] | 0.29
6 | 6-{[({(3-bromo-4-methoxyphenyl)[3-chloro-5-(trifluoromethyl)pyridin-2-yl]methylene}amino)oxy]methyl}pyridin-2-amine [Example 432] | 2.54

Same assay, conditions: HCOOH (formic acid)

Row | Compound | chromatographic logP
7 | Cc1ncc(C(=NO)c2ccccc2)n1C [1-(1,2-dimethyl-1H-imidazol-5-yl)-N-hydroxy-1-phenylmethanimine] | 0.43
8 | ON=C(c1ccsc1)c1snc(Cl)c1Cl [1-(3,4-dichloro-1,2-thiazol-5-yl)-N-hydroxy-1-(3-thienyl)methanimine] | 3.04
9 | Cc1cnc(C)c(C(=NO)c2ccccc2)n1 [1-(3,6-dimethylpyrazin-2-yl)-N-hydroxy-1-phenylmethanimine] | 1.7
10 | CON(C)C(=O)c1snc(Cl)c1Cl [3,4-dichloro-N-methoxy-N-methyl-1,2-thiazole-5-carboxamide] | 1.66
11 | Cc1ncc(C(=O)c2ccccc2)n1C [(1,2-dimethyl-1H-imidazol-5-yl)(phenyl)methanone] | 0.56
12 | Cn1ccnc1C(=O)c1ccccc1 [(1-methyl-1H-imidazol-2-yl)(phenyl)methanone] | 1.38
13 | Cn1cncc1C(=O)c1cccs1 [(1-methyl-1H-imidazol-5-yl)(2-thienyl)methanone] | 0.52
14 | Cn1cncc1C(=O)c1ccsc1 [(1-methyl-1H-imidazol-5-yl)(3-thienyl)methanone] | 0.43
15 | Cn1cncc1C(=O)c1ccccc1 [(1-methyl-1H-imidazol-5-yl)(phenyl)methanone] | 0.79
16 | O=C(c1ccsc1)c1snc(Cl)c1Cl [(3,4-dichloro-1,2-thiazol-5-yl)(3-thienyl)methanone] | 3.31
17 | Cc1cnc(C)c(C(C#N)c2ccccc2)n1 (stereo not shown) [(3,6-dimethylpyrazin-2-yl)(phenyl)acetonitrile] | 2.28
18 | Cc1cnc(C)c(C(=O)c2ccccc2)n1 [(3,6-dimethylpyrazin-2-yl)(phenyl)methanone] | 2.18
19 | Cc1nocc1C(=O)c1cccs1 [(3-methyl-1,2-oxazol-4-yl)(2-thienyl)methanone] | 2.2
20 | Cc1nocc1C(=NOC(=O)c1ccccn1)c1cccs1 [({[(3-methyl-1,2-oxazol-4-yl)(2-thienyl)methylene]amino}oxy)(pyridin-2-yl)methanone] | 2.25

Same assay, conditions: HPLC (LC-MS) method [b]: pH 2.7, 0.1% formic acid in water and acetonitrile, linear gradient 10% to 95% acetonitrile; EEC directive 79/831 Annex V.A8

Row | Compound | log p
21 | 2-(6-{[({(3-bromo-4-methoxyphenyl)[3-chloro-5-(trifluoromethyl)pyridin-2-yl]methylene}amino)oxy]methyl}pyridin-2-yl)-1H-isoindole-1,3(2H)-dione [Example 430] | 1.67^[b]
22 | 2-{6-[({[(1-methyl-1H-imidazol-5-yl)(3-thienyl)methylene]amino}oxy)-methyl]pyridin-2-yl}-1H-isoindole-1,3(2H)-dione [Example 491] | 3.67^[b]
23 | 6-{[({(3-bromo-4-methoxyphenyl)[3-chloro-5-(trifluoromethyl)pyridin-2-yl]methylene}amino)oxy]methyl}pyridin-2-amine [Example 432] | 1.99^[b]
24 | Cn1cncc1C(=NOCc1cccc(N)n1)c1ccsc1 (single isomer, unassigned) [Example 418] | 0.39^[b]
25 | Cn1cncc1C(=NOCc1cccc(N)n1)c1ccsc1 (single isomer, unassigned) [Example 419] | 0.32^[b]
26 | CCCCCC(=O)Nc1cccc(CON=C(c2ccsc2)c2cncn2C)n1 (single isomer, unassigned) [Example 426] | 1.99^[b]
27 | CCCCCC(=O)Nc1cccc(CON=C(c2ccsc2)c2cncn2C)n1 (single isomer, unassigned) [Example 427] | 1.99^[b]
28 | CCCCCOC(=O)Nc1nc(CON=C(c2cccs2)c2cncn2C)cs1 (single isomer, unassigned) [Example 459] | 2.16^[b]
29 | CCCCCOC(=O)Nc1nc(CON=C(c2cccs2)c2cncn2C)cs1 (single isomer, unassigned) [Example 460] | 2.25^[b]
30 | CCCCCOC(=O)Nc1nc(CON=C(c2ccsc2)c2cncn2C)cs1 (single isomer, unassigned) [Example 461] | 2.22^[b]
31 | CCCCCOC(=O)Nc1nc(CON=C(c2ccsc2)c2cncn2C)cs1 (single isomer, unassigned) [Example 462] | 2.23^[b]

Same assay, conditions: HPLC on reversed phase columns, method [a]: pH 2.3 with 0.1% phosphoric acid and acetonitrile as eluent

Row | Compound | log p
32 | Cc1nnsc1C(=NOCc1ccccn1)c1ccccc1 [Example 1] | 2.36^[a]

Same assay, conditions: HPLC/MS with HCOOH (formic acid)

Row | Compound | chromatographic logP
33 | COc1ccc(C(=NO)c2ncc(C(F)(F)F)cc2Cl)cc1Br [1-(3-bromo-4-methoxyphenyl)-1-[3-chloro-5-(trifluoromethyl)pyridin-2-yl]-N-hydroxymethanimine] | 3.37

Same assay, conditions: LC-MS, method [b]: pH 2.7 with 0.1% formic acid in water and acetonitrile, linear gradient 10% to 95% acetonitrile

Row | Compound | log p
34 | 2-[({[(1-methyl-1H-imidazol-2-yl)(phenyl)methylene]amino}oxy)methyl]pyrimidin-4-amine [Example 7] | 1.26^[b]
35 | 2-[({[(1-methyl-1H-imidazol-5-yl)(phenyl)methylene]amino}oxy)methyl]pyrimidin-4-amine [Example 105] | 5.05^[b]
36 | 6-[({[(1-methyl-1H-imidazol-5-yl)(phenyl)methylene]amino}oxy)methyl]pyridin-2-amine [Example 108] | 4.75^[b]
37 | Cn1cncc1C(=NOCc1cccc(N)n1)c1ccccc1 (single isomer, unassigned) [Example 97] | 0.25^[b]
38 | Cn1cncc1C(=NOCc1cccc(N)n1)c1ccccc1 (single isomer, unassigned) [Example 98] | 0.29^[b]
39 | Cn1cncc1C(=NOCc1cccc(NC(=O)C(C)(C)C)n1)c1ccccc1 (single isomer, unassigned) [Example 123] | 2.1^[b]
40 | Cn1cncc1C(=NOCc1cccc(NC(=O)C(C)(C)C)n1)c1ccccc1 (single isomer, unassigned) [Example 126] | 1.85^[b]
41 | CCCCCOC(=O)Nc1cccc(CON=C(c2ccccc2)c2ocnc2C)n1 (single isomer, unassigned) [Example 318] | 4.34^[b]
42 | CCCCCOC(=O)Nc1cccc(CON=C(c2ccccc2)c2ocnc2C)n1 (single isomer, unassigned) [Example 319] | 4.54^[b]
43 | CCCCCOC(=O)Nc1nc(CON=C(c2ccccc2)c2ocnc2C)cs1 (single isomer, unassigned) [Example 322] | 3.87^[b]
44 | CCCCCC(=O)Nc1cccc(CON=C(c2ccccc2)c2ocnc2C)n1 (single isomer, unassigned) [Example 323] | 3.67^[b]
45 | Cc1ncoc1C(=NOCc1csc(N)n1)c1ccccc1 (single isomer, unassigned) [Example 350] | 1.3^[b]
46 | Cn1ccnc1C(=NOCc1cccc(N2C(=O)c3ccccc3C2=O)n1)c1ccccc1 [Example 2] | 1.8^[b]
47 | Cc1cccc(C(=NOCc2cccc(N3C(=O)c4ccccc4C3=O)n2)c2ncnn2C)c1 [Example 5] | 3.04^[b]
48 | Cc1ccccc1C(=NOCc1cccc(N)n1)c1ncnn1C [Example 6] | 0.96^[b]
49 | Cc1cccc(C(=NOCc2cccc(N)n2)c2ncnn2C)c1 [Example 8] | 1.27^[b]
50 | Cc1ccccc1C(=NOCc1cccc(N2C(=O)c3ccccc3C2=O)n1)c1ncnn1C [Example 9] | 2.78^[b]
51 | Cc1ccc(C(=NOCc2cccc(N3C(=O)c4ccccc4C3=O)n2)c2ncnn2C)cc1 [Example 10] | 2.92^[b]
52 | Cn1ccnc1C(=NOCc1cccc(N)n1)c1ccccc1 [Example 11] | 0.36^[b]

Same assay, conditions: LC-MS, method [c]: pH 7.8 with 0.001 molar ammonium hydrogen carbonate solution in water, linear gradient 10% to 95% acetonitrile

Row | Compound | log p
53 | Cn1ccnc1C(=NOCc1nccc(N)n1)c1ccccc1 [Example 3] | 1.42^[c]
54 | Cn1ccnc1C(=NOCc1cccc(N)n1)c1ccccc1 [Example 11] | 1.89^[c];

Same assay, conditions: Neutral

Row | Compound | log P(Neutral)
55 | 2-[({[(1-methyl-1H-imidazol-2-yl)(phenyl)methylene]amino}oxy)methyl]pyrimidin-4-amine [Example 7] | 1.42

Same assay, conditions: method [b]: LC-MS at pH 2.7, 0.1% formic acid in water / acetonitrile, linear gradient 10% to 95% acetonitrile

Row | Compound | log p
56 | 2-methyl-N-{4-[({[(1-methyl-1H-imidazol-5-yl)(phenyl)methylene]amino}-oxy)methyl]-1,3-thiazol-2-yl}propanamide [Example 143] | 1.11^[b]
57 | Cc1nc(C(=NOCc2cccc(N3C(=O)c4ccccc4C3=O)n2)c2ccccc2)cs1 (single isomer, unassigned) [Example 168] | 3.27^[b]
58 | Cc1nc(C(=NOCc2cccc(N)n2)c2ccccc2)cs1 (single isomer, unassigned) [Example 169] | 1.7^[b]
59 | Cc1nc(C(=NOCc2cccc(N3C(=O)c4ccccc4C3=O)n2)c2ccccc2)cs1 (single isomer, unassigned) [Example 170] | 3.55^[b]
60 | Cc1nc(C(=NOCc2cccc(NC(=O)CC(C)C)n2)c2ccccc2)cs1 (single isomer, unassigned) [Example 171] | 3.46^[b]
61 | Cc1nc(C(=NOCc2cccc(NC(=O)Cc3ccccc3)n2)c2ccccc2)cs1 (single isomer, unassigned) [Example 173] | 3.61^[b]
62 | Cc1nc(C(=NOCc2cccc(N)n2)c2ccccc2)cs1 (single isomer, unassigned) [Example 174] | 1.47^[b]
63 | CCCCCC(=O)Nc1cccc(CON=C(c2ccccc2)c2csc(C)n2)n1 (single isomer, unassigned) [Example 188] | 3.89^[b]
64 | CCCCCC(=O)Nc1cccc(CON=C(c2ccccc2)c2csc(C)n2)n1 (single isomer, unassigned) [Example 189] | 4.26^[b]
65 | Cc1nc(C(=NOCc2cccc(NC(=O)CC(C)C)n2)c2ccccc2)cs1 (single isomer, unassigned) [Example 190] | 3.75^[b]
66 | Cc1nc(C(=NOCc2cccc(NC(=O)Cc3ccccc3)n2)c2ccccc2)cs1 (single isomer, unassigned) [Example 191] | 3.87^[b]

Same assay, conditions: reversed phase HPLC column, pH 2.7

Row | Compound | chromatographic logP
67 | Cn1ncnc1C(=NOCc1cccc(N)n1)c1ccccc1 [Example 4, 6-[({[(1-methyl-1H-1,2,4-triazol-5-yl)(phenyl)methylene]amino}oxy)methyl]pyridin-2-amine] | 1
